Laboratory results taken from EPA's ToxRefDB 2.

Assays:
rat [1] = conditions: Combined chronic toxicity/carcinogenicity, other, Oral, Feed, dose end: 24 month, group: systemic
rat [2] = conditions: Prenatal developmental toxicity study, wistar, Oral, [Not Specified], dose end: 20 GD
mouse [3] = conditions: Carcinogenicity, other, Oral, Feed, dose end: 18 month, group: systemic
rat [4] = conditions: Subchronic oral toxicity in rodents, other, Feed, dose end: 90 day, group: systemic
rat [5] = conditions: Subchronic oral toxicity in rodents, wistar, Feed, dose end: 90 day, group: systemic
rat [6] = conditions: Prenatal developmental toxicity study, other, Oral, Gavage/Intubation, dose end: 15 GD
rat [7] = conditions: Multigenerational reproductive toxicity study, other, Oral, Feed, dose end: 2 generation
dog [8] = conditions: Chronic toxicity; beagle; Oral; Feed; dose end: 12 month; group: systemic; systemic / in life observation / body weight / body weight gain + systemic / in life observation / food consumption / food consumption + …
mouse [9] = conditions: Subchronic oral toxicity in rodents, other, Feed, dose end: 90 day, group: systemic
rabbit = conditions: Prenatal developmental toxicity study, Russian (Chbb:HM, SPF), Oral, Gavage/Intubation, dose end: 19 GD
dog [10] = conditions: Subchronic oral toxicity in nonrodent, beagle, Feed, dose end: 3 month, group: systemic, systemic / in life observation / body weight / body weight gain + systemic / in life observation / food consumption / food consumption
rat [11] = conditions: Combined chronic toxicity/carcinogenicity, sprague dawley, Oral, Feed, dose end: 24 month, group: systemic
rat [12] = conditions: Prenatal developmental toxicity study, sprague dawley, Oral, Gavage/Intubation, dose end: 15 GD
rat [13] = conditions: Multigenerational reproductive toxicity study, other, Oral, Feed, dose end: 2 generation; remark: listed apart in the source
dog [14] = conditions: Chronic toxicity; beagle; Oral; Capsule; dose end: 52 week; group: systemic; systemic / hematology / anemia / anemia - hemolytic + systemic / hematology / erythrocyte (rbc) count differential / erythrocyte (rbc) + …
dog [15] = conditions: Subchronic oral toxicity in nonrodent, beagle, Capsule, dose end: 13 week, group: systemic
mouse [16] = conditions: Subchronic oral toxicity in rodents, Feed, dose end: 3 month, group: systemic
mouse [17] = conditions: Carcinogenicity; other; Oral; Feed; group: systemic; systemic / hematology / anemia / anemia - nos + systemic / pathology microscopic / bone marrow / hemosiderosis + systemic / pathology …
rat [18] = conditions: Subchronic oral toxicity in rodents, sprague dawley, Feed, dose end: 90 day, group: systemic
[19] = systemic / pathology microscopic / liver / dilatation + systemic / clinical chemistry / urea nitrogen / urea + systemic / in life …
[20] = group: developmental, developmental / developmental malformation / bone / unossified
[21] = group: developmental, developmental / developmental malformation / bone / unossified + developmental / developmental malformation / bone / incomplete ossification…
[22] = group: maternal, systemic / in life observation / clinical signs / piloerection + systemic / in life observation / clinical signs / salivation + systemic / …
[23] = systemic / pathology microscopic / pancreas / hyperplasia
[24] = systemic / pathology microscopic / pancreas / hyperplasia + systemic / in life observation / body weight / body weight + systemic / in life …
[25] = systemic / clinical chemistry / cholesterol / cholesterol + systemic / clinical chemistry / lipids / phospholipids
[26] = systemic / clinical chemistry / calcium / calcium
[27] = systemic / in life observation / body weight / body weight + systemic / in life observation / body weight / body weight gain + systemic / …
[28] = group: developmental, developmental / developmental malformation / bone / incomplete ossification + developmental / developmental malformation / bone / unossified…
[29] = group: maternal, systemic / in life observation / body weight / body weight + systemic / in life observation / body weight / body weight gain + systemic / in…
[30] = group: offspring, systemic / in life observation / body weight / offspring (pup) weight
[31] = group: parental, systemic / organ weight / kidney / relative to body weight
[32] = systemic / pathology microscopic / liver / necrosis
[33] = systemic / pathology microscopic / liver / necrosis + systemic / hematology / leukocyte (wbc) count differential / leukocyte (wbc) + …
[34] = group: developmental, developmental / developmental malformation / bone / full supernumerary
[35] = group: maternal, systemic / in life observation / body weight / body weight gain
[36] = systemic / hematology / anemia / anemia - hemolytic + systemic / in life observation / body weight / body weight + systemic / in life …
[37] = systemic / in life observation / clinical signs / alopecia
[38] = group: developmental, developmental / developmental malformation / trunk / umbilical hernia
[39] = group: maternal, systemic / in life observation / clinical signs / hemorrhagic perineal discharge
[40] = group: maternal, systemic / in life observation / clinical signs / hemorrhagic perineal discharge + reproductive / reproductive performance / …
[41] = group: offspring, systemic / in life observation / body weight / offspring (pup) weight + systemic / in life observation / body weight / offspring (pup) …
[42] = group: parental, systemic / organ weight / spleen / absolute + systemic / organ weight / spleen / relative to body weight + systemic / pathology microscopic…
[43] = group: parental, systemic / organ weight / spleen / relative to body weight
[44] = systemic / hematology / anemia / anemia - hemolytic + systemic / hematology / erythrocyte (rbc) count differential / erythrocyte (rbc) + …
[45] = systemic / organ weight / spleen / relative to body weight
[46] = systemic / organ weight / spleen / relative to body weight + systemic / pathology microscopic / spleen / hemosiderosis + systemic / in life …
[47] = systemic / in life observation / body weight / body weight + systemic / in life observation / food consumption / food consumption + systemic…

## Cc1cc(C2CC2)nc(Nc2ccccc2)n1 [Cyprodinil]
Rat [1]; systemic / pathology microscopic / liver / dilatation
  LOAEL: 35.6 mg/kg/day
Rat [1]; systemic / pathology microscopic / liver / dilatation + systemic / clinical chemistry / urea nitrogen / urea
  LEL: 35.6 mg/kg/day
Rat [1]; [19]
  NEL: 2.7 mg/kg/day
  NOAEL: 2.7 mg/kg/day
Rat [2]; [20]
  LEL: 200 mg/kg/day
  LOAEL: 200 mg/kg/day
Rat [2]; [21]
  NEL: 20 mg/kg/day
  NOAEL: 20 mg/kg/day
Rat [2]; [22]
  LEL: 200 mg/kg/day
  LOAEL: 200 mg/kg/day
  NEL: 20 mg/kg/day
  NOAEL: 20 mg/kg/day
Mouse [3]; [23]
  LEL: 212 mg/kg/day
  LOAEL: 212 mg/kg/day
Mouse [3]; [24]
  NEL: 16.1 mg/kg/day
  NOAEL: 16.1 mg/kg/day
Rat [4]; [25]
  LEL: 3.24 mg/kg/day
  NEL: < 3.24 mg/kg/day
Rat [4]; systemic / pathology microscopic / kidney / lesion(s) (nos)
  LOAEL: 18.9 mg/kg/day
Rat [4]; systemic / pathology microscopic / kidney / lesion(s) (nos) + systemic / clinical chemistry / albumin / albumin + systemic / clinical …
  NOAEL: 3.14 mg/kg/day
Rat [5]; [26]
  LEL: 3.52 mg/kg/day
  NEL: < 3.52 mg/kg/day
Rat [5]; [27]
  LOAEL: 131 mg/kg/day
  NOAEL: 17.8 mg/kg/day
Rat [6]; [28]
  LEL: 1000 mg/kg/day
  LOAEL: 1000 mg/kg/day
  NEL: 200 mg/kg/day
  NOAEL: 200 mg/kg/day
Rat [6]; [29]
  LEL: 1000 mg/kg/day
  LOAEL: 1000 mg/kg/day
  NEL: 200 mg/kg/day
  NOAEL: 200 mg/kg/day
Rat [7]; [30]
  LEL: 332 mg/kg/day
  LOAEL: 332 mg/kg/day
  NEL: 77.2 mg/kg/day
  NOAEL: 77.2 mg/kg/day
Rat [7]; group: parental, systemic / in life observation / body weight / body weight
  LOAEL: 326 mg/kg/day
Rat [7]; group: parental, systemic / in life observation / body weight / body weight + systemic / organ weight / heart / relative to body weight + systemic / organ …
  NOAEL: 81.3 mg/kg/day
Rat [7]; [31]
  LEL: 0.7 mg/kg/day
  NEL: < 0.7 mg/kg/day
Dog [8]
  LEL: 446 mg/kg/day
  LOAEL: 446 mg/kg/day
  NEL: 68 mg/kg/day
  NOAEL: 68 mg/kg/day
Mouse [9]; [32]
  LEL: 257 mg/kg/day
  LOAEL: 257 mg/kg/day
Mouse [9]; [33]
  NEL: 73.3 mg/kg/day
  NOAEL: 73.3 mg/kg/day
rabbit; [34]
  LEL: 400 mg/kg/day
  LOAEL: 400 mg/kg/day
  NEL: 150 mg/kg/day
  NOAEL: 150 mg/kg/day
rabbit; [35]
  LEL: 400 mg/kg/day
  LOAEL: 400 mg/kg/day
  NEL: 150 mg/kg/day
  NOAEL: 150 mg/kg/day
Dog [10]
  LEL: 560 mg/kg/day
  LOAEL: 560 mg/kg/day
  NEL: 210 mg/kg/day
  NOAEL: 210 mg/kg/day

## CSC(=O)c1cccc2nnsc12 [Acibenzolar-S-methyl]
Rat [11]; [36]
  LOAEL: 312 mg/kg/day
  NOAEL: 96.9 mg/kg/day
Rat [11]; [37]
  LEL: 0.9 mg/kg/day
  NEL: < 0.9 mg/kg/day
Rat [12]; [38]
  LEL: 10 mg/kg/day
  LOAEL: 10 mg/kg/day
  NEL: < 10 mg/kg/day
  NOAEL: < 10 mg/kg/day
Rat [12]; [39]
  LEL: 50 mg/kg/day
  LOAEL: 400 mg/kg/day
Rat [12]; [40]
  NEL: 10 mg/kg/day
  NOAEL: 200 mg/kg/day
Rat [13]; [41]
  LEL: 100 mg/kg/day
  LOAEL: 100 mg/kg/day
  NEL: 10 mg/kg/day
  NOAEL: 10 mg/kg/day
Rat [13]; [42]
  LOAEL: 100 mg/kg/day
  NOAEL: 10 mg/kg/day
Rat [13]; [43]
  LEL: 1 mg/kg/day
  NEL: < 1 mg/kg/day
Dog [14]
  LEL: 200 mg/kg/day
  LOAEL: 200 mg/kg/day
  NEL: 25 mg/kg/day
  NOAEL: 25 mg/kg/day
Dog [15]; [44]
  LOAEL: 200 mg/kg/day
  NEL: 10 mg/kg/day
  NOAEL: 50 mg/kg/day
Dog [15]; systemic / organ weight / liver / absolute + systemic / organ weight / liver / relative to body weight
  LEL: 50 mg/kg/day
Mouse [16]; [45]
  LEL: 47.4 mg/kg/day
  NEL: < 47.4 mg/kg/day
Mouse [16]; [46]
  LOAEL: 152 mg/kg/day
  NOAEL: 30.6 mg/kg/day
Mouse [17]
  LEL: 234 mg/kg/day
  LOAEL: 234 mg/kg/day
  NEL: 10.8 mg/kg/day
  NOAEL: 10.8 mg/kg/day
Rat [18]; systemic / clinical chemistry / sodium / sodium
  LEL: 126 mg/kg/day
Rat [18]; [47]
  LOAEL: 516 mg/kg/day
  NEL: 24.6 mg/kg/day
  NOAEL: 126 mg/kg/day
